Experimental data reported in article PMC5506657, “Improvement in phosphate acquisition and utilization by a secretory purple acid phosphatase (OsPAP21b) in rice” (Plant Biotechnology Journal, 2017).

Columns and labels:
[1] = test system: OsPAP21b; assay: released Pi by vanadomolybdate; Lineweaver-Burk; assay type: biochemical, Oryza sativa; settings: 5 mM MgCl2, 50 mM sodium acetate pH 5.0, 37 °C; 0.1-100 mM substrate
[2] = test system: OsPAP21b; settings: 10 mM pNPP; 0 to 25 mM NaH2PO4; 5 mM MgCl2, 50 mM sodium acetate pH 5.0, 37 °C; reaction product as inhibitor

Km [1]	IC50 [2]	Structure (SMILES)
77 ± 4 µM	–	Nc1ncnc2c1ncn2[C@@H]1O[C@H](COP(=O)(O)OP(=O)(O)O)[C@@H](O)[C@H]1O [ADP]
–	5.09 ± 1.34 mM	O=P(O)(O)O [Pi]
90 ± 10 µM	–	O=[N+]([O-])c1ccc(OP(=O)(O)O)cc1 [pNPP]
